In patent publication US7026339B2, “Inhibitors of HCV NS5B polymerase” (priority 2003, dated 2006):

These molecules were tested on HuH-7 replicon cells 5–15 and 9–13 (HCV replication) (assay: Inhibition of viral replication in HuH-7 replicon cells (HCV RNA / GAPDH RNA by multiplex RT-PCR)). Settings: Hepatitis C virus, 72 h; inhibiting 50% of replication; HuH-7 replicon cells, 3 days; read-out: IC50.
Type: cell-based
Method in brief: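 HCV and GAPDH RNA were measured by multiplex TaqMan RT-PCR (HCV 5′ untranslated region) after 3-day compound treatment at 37 °C, final 100 μM–1 μM in 1% DMSO. Cells were plated 24 h beforehand at 7×10^3/well. Read-out: HCV-to-GAPDH ratio expressed as percent control versus untreated cells.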

| SMILES | IC50 [µM] |
| --- | --- |
| COc1cccc(CC(=O)N/N=C/c2ccncc2OS(=O)(=O)c2ccc(C)cc2)c1 [Compound 229, 4-((E)-{2-[2-(3-methoxyphenyl)acetyl]hydrazono}methyl)-pyridin-3-yl 4-methylbenzenesulfonate] | < 5 |
| COc1ccc(CC(=O)N/N=C/c2ccccc2OS(=O)(=O)c2ccc(C(F)(F)F)cc2)cc1OC [Compound 150, 2-((E)-{2-[2-(3,4-dimethoxyphenyl)acetyl]hydrazono}methyl)-phenyl 4-(trifluoromethyl)benzenesulfonate] | < 5 |
| C/C(=N\NC(=O)Cc1ccccc1)c1ccccc1OS(=O)(=O)c1ccc(C(F)(F)F)cc1 [Compound 219, 2-[(1E)-N-(phenylacetyl)ethanehydrazonoyl]phenyl4-(trifluoromethyl)benzenesulfonate] | > 50 |
| COc1ccc(CC(=O)N/N=C/c2ccccc2OS(=O)(=O)c2ccc(C)cc2)cc1OC [Compound 149, 2-((E)-{2-[2-(3,4-dimethoxyphenyl)acetyl]hydrazono}methyl)-phenyl 4-methylbenzenesulfonate] | < 5 |
| COc1ccc(OC)c(CC(=O)N/N=C/c2ccccc2OS(=O)(=O)c2ccc(C(F)(F)F)cc2)c1 [Compound 37, 2-((E)-{2-[2-(2,5-dimethoxyphenyl)acetyl]hydrazono}methyl)-phenyl 4-(trifluoromethyl)benzenesulfonate] | < 5 |
| O=C(Cc1cccs1)N/N=C/c1ccccc1OS(=O)(=O)c1ccc(C(F)(F)F)cc1 [Compound 4, 2-{(E)-[2-(2-thien-2-ylacetyl)-hydrazono]methyl}phenyl 4-(trifluoromethyl)benzenesulfonate] | < 5 |
| O=C(CC1CCCC1)N/N=C/c1ccccc1OS(=O)(=O)c1ccc(C(F)(F)F)cc1 [Compound 84, 2-{(E)-[2-(2-cyclopentylacetyl)hydrazono]methyl}phenyl4-(trifluoromethyl)benzenesulfonate] | < 5 |
| O=C(Cc1c(F)ccc(F)c1F)N/N=C/c1ccccc1OS(=O)(=O)c1ccc(C(F)(F)F)cc1 [Compound 27, 2-((E)-{2-[2-(2,3,6-trifluorophenyl)acetyl]hydrazono}methyl)-phenyl 4-(trifluoromethyl)benzenesulfonate] | < 5 |
| COc1cccc(S(=O)(=O)Oc2ccccc2/C=N/NC(=O)Cc2ccccc2)c1 [Compound 143, 2-{(E)-[2-(2-phenylacetyl)hydrazono]methyl}phenyl 3-methoxybenzenesulfonate] | 5 to 50 |
| O=C(Cc1cccc(Cl)c1)N/N=C/c1ncccc1OS(=O)(=O)c1ccc(C(F)(F)F)cc1 [Compound 213, 2-((E)-{2-[2-(3-chlorophenyl)acetyl]hydrazono}methyl)-pyridin-3-yl 4-(trifluoromethyl)benzenesulfonate] | 5 to 50 |
| COc1cccc(CC(=O)N/N=C/c2ccccc2OS(=O)(=O)Cc2cccc(C(F)(F)F)c2)c1 [Compound 189, 2-((E)-{2-[2-(3-methoxyphenyl)acetyl]hydrazono}methyl)-phenyl [3-(trifluoromethyl)phenyl]methanesulfonate] | > 50 |
| COc1cccc(CC(=O)N/N=C/c2cc(C)ccc2OS(=O)(=O)c2ccc(C)cc2)c1 [Compound 157, 2-((E)-{[(3-methoxyphenyl)acetyl]hydrazono}methyl)-4-methylphenyl 4-methylbenzenesulfonate] | < 5 |
| O=C(Cc1c(F)c(F)c(F)c(F)c1F)N/N=C/c1ccccc1OS(=O)(=O)c1ccc(C(F)(F)F)cc1 [Compound 12, 2-((E)-{2-[2-(pentafluorophenyl)acetyl]hydrazono}-methyl)phenyl 4-(trifluoromethyl)benzenesulfonate] | > 50 |
| O=C(CCc1cccnc1)N/N=C/c1ccccc1OS(=O)(=O)c1ccc(C(F)(F)F)cc1 [Compound 30, 2-{(E)-[2-(3-pyridin-3-ylpropanoyl)hydrazono]methyl}phenyl 4-(trifluoromethyl)benzenesulfonate] | < 5 |
| O=C(N/N=C/c1ccccc1OS(=O)(=O)c1ccc(C(F)(F)F)cc1)c1cccnc1 [Compound 76, 2-{(E)-[2-(pyridin-3-ylcarbonyl)hydrazono]methyl}phenyl 4-(trifluoromethyl)benzenesulfonate] | 5 to 50 |
| O=C(Cc1ccccc1)N/N=C/c1ccccc1OS(=O)(=O)c1ccccc1F [Compound 112, 2-{(E)-[2-(2-phenylacetyl)hydrazono]methyl}phenyl 2-fluorobenzenesulfonate] | > 50 |
| COc1cccc(CC(=O)N/N=C/c2ccc(C)cc2OS(=O)(=O)c2ccc(C(F)(F)F)cc2)c1 [Compound 178, 2-((E)-{[(3-methoxyphenyl)acetyl]hydrazono}methyl)-5-methylphenyl 4-(trifluoromethyl)benzenesulfonate] | < 5 |
| COc1cccc(CC(=O)N/N=C/c2ccccc2OS(=O)(=O)c2ccc(Oc3ccc(F)cc3)cc2)c1 [Compound 202, 2-((E)-{2-[2-(3-methoxyphenyl)acetyl]hydrazono}methyl)-phenyl 4-(4-fluorophenoxy)benzenesulfonate] | > 50 |
